Assay results taken from patent US20260176320A1, “MODULATORS OF G-PROTEIN COUPLED RECEPTORS” (priority 2018, published 2026).

How the values were obtained:
Type in all cases: cell-based
[1] = target: T1, GLP-1R (Homo sapiens, UniProt P43220); test: HitHunter cAMP assay (GLP-1R); details: Table 3A, cAMP; for EC50: read-out: EC50 GLP-1R/nM; for Emax: read-out: (Emax) GLP-1R
Method in brief: (§1)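 cAMP, luminescence read: agonist 22-pt 2× dilution in DMSO, duplicate, 30 min RT on 10,000 cells/well in 1×HBSS/10 mM HEPES/625 μM IBMX/0.2% BSA; anti-cAMP reagent 1 h RT dark, then O/N RT dark before read.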

[2] = target: T2, GIP-R (Homo sapiens, UniProt P48546); test: HitHunter cAMP assay (GIP-R); details: Table 3A, cAMP; for Emax: read-out: (Emax) GIP-R; for EC50: read-out: EC50 GIP-R/nM
T2 sequence (P48546 22-466): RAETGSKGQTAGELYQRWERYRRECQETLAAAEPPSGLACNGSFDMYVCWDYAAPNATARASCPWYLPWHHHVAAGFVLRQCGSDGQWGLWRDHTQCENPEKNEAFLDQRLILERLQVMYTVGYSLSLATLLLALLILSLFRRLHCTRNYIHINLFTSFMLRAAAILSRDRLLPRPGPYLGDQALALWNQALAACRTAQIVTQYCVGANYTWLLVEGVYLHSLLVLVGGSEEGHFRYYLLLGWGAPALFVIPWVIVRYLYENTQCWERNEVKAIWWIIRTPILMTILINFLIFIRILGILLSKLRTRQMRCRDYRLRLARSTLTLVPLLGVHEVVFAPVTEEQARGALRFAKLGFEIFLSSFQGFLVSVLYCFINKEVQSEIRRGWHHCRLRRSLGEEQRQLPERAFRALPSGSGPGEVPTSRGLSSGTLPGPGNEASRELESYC
Method in brief: as §1

[3] = target: T1, GLP-1R; test: PathHunter β-arrestin assay; details: PathHunter β-arrestin assay; read-out: β-arrestin activity EC50
Method in brief: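 Luminescence read-out of β-arrestin recruitment (enzyme-fragment complementation detection, 3 h at room temperature in the dark) after 90 min agonist stimulation at 37 °C. Agonists tested as 22-point 2× serial dilutions in duplicate, in medium containing 0.2% BSA.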

T1 sequence (P43220 24-463): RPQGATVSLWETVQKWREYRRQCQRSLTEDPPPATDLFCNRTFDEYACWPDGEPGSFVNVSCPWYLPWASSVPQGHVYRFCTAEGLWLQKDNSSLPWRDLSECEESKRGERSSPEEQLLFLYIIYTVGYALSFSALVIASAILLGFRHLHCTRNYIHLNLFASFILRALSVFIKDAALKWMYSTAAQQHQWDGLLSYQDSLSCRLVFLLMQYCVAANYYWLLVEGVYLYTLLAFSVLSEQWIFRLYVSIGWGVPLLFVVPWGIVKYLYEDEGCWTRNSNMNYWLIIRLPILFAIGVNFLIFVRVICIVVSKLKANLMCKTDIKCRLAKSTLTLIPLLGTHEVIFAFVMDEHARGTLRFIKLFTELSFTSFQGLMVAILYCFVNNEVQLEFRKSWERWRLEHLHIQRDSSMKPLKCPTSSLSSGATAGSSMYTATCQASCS

Structure (SMILES)	EC50 [1] [nM]	Emax [2] [%]	EC50 [2] [nM]	EC50 [3] [nM]	Emax [1] [%]
CCCCCCCCCCCCCCCC(=O)N[C@@H](CCC(=O)NCCCC[C@H](NC(=O)[C@H](CO)NC(=O)[C@@H]1CCCN1C(=O)[C@@H]1CCCN1C(=O)[C@@H]1CCCN1C(=O)[C@H](C)NC(=O)CNC(=O)[C@H](CO)NC(=O)[C@H](CO)NC(=O)[C@@H]1CCCN1C(=O)CNC(=O)CNC(=O)[C@H](C)NC(=O)[C@H](CC(C)C)NC(=O)[C@H](CC(C)C)NC(=O)[C@H](Cc1c[nH]c2ccccc12)NC(=O)[C@H](CC(N)=O)NC(=O)[C@@H](NC(=O)[C@H](Cc1ccccc1)NC(=O)[C@H](CCC(=O)O)NC(=O)C(C)(C)NC(=O)[C@H](C)NC(=O)[C@H](C)NC(=O)[C@H](CCC(N)=O)NC(=O)[C@H](CCCCN)NC(=O)[C@H](CC(=O)O)NC(=O)[C@H](CC(C)C)NC(=O)[C@H](Cc1ccc(O)cc1)NC(=O)[C@@H](NC(=O)[C@H](CO)NC(=O)[C@H](Cc1ccc(O)cc1)NC(=O)[C@H](CC(=O)O)NC(=O)[C@H](CO)NC(=O)[C@@H](NC(=O)[C@H](Cc1ccccc1)NC(=O)[C@@H](NC(=O)CNC(=O)[C@H](CCC(=O)O)NC(=O)CC(C)(C)C(=O)NCCN1CCCCC1=O)[C@@H](C)O)[C@@H](C)O)[C@@H](C)CC)C(C)C)C(N)=O)C(=O)O [Compound 204]	< 0.1	98	10 to 100	20 to 1000	
CCCCCCCCCCCCCCCC(=O)N[C@@H](CCC(=O)NCCCC[C@H](NC(=O)[C@H](CO)NC(=O)[C@@H]1CCCN1C(=O)[C@@H]1CCCN1C(=O)[C@@H]1CCCN1C(=O)[C@H](C)NC(=O)CNC(=O)[C@H](CO)NC(=O)[C@H](CO)NC(=O)[C@@H]1CCCN1C(=O)CNC(=O)CNC(=O)[C@H](C)NC(=O)[C@H](CC(C)C)NC(=O)[C@H](CC(C)C)NC(=O)[C@H](Cc1c[nH]c2ccccc12)NC(=O)[C@H](CC(N)=O)NC(=O)[C@@H](NC(=O)[C@H](Cc1ccccc1)NC(=O)[C@H](CCC(=O)O)NC(=O)C(C)(C)NC(=O)[C@H](C)NC(=O)[C@H](C)NC(=O)[C@H](CCC(N)=O)NC(=O)[C@H](CCCCN)NC(=O)[C@H](CC(=O)O)NC(=O)[C@H](CC(C)C)NC(=O)[C@H](Cc1ccc(O)cc1)NC(=O)[C@@H](NC(=O)[C@H](CO)NC(=O)[C@H](Cc1ccc(O)cc1)NC(=O)[C@H](CC(=O)O)NC(=O)[C@H](CO)NC(=O)[C@@H](NC(=O)[C@H](Cc1ccccc1)NC(=O)[C@@H](NC(=O)CNC(=O)[C@H](CCC(=O)O)NC(=O)CN(C)C(=O)CN1CCCCC1=O)[C@@H](C)O)[C@@H](C)O)[C@@H](C)CC)C(C)C)C(N)=O)C(=O)O [Compound 205]	< 0.1	61	1 to 10	> 1000	
CCCCCCCCCCCCCCCC(=O)N[C@@H](CCC(=O)NCCCC[C@H](NC(=O)[C@H](CO)NC(=O)[C@@H]1CCCN1C(=O)[C@@H]1CCCN1C(=O)[C@@H]1CCCN1C(=O)[C@H](C)NC(=O)CNC(=O)[C@H](CO)NC(=O)[C@H](CO)NC(=O)[C@@H]1CCCN1C(=O)CNC(=O)CNC(=O)[C@H](C)NC(=O)[C@H](CC(C)C)NC(=O)[C@H](CC(C)C)NC(=O)[C@H](Cc1c[nH]c2ccccc12)NC(=O)[C@H](CC(N)=O)NC(=O)[C@@H](NC(=O)[C@H](Cc1ccccc1)NC(=O)[C@H](CCC(=O)O)NC(=O)C(C)(C)NC(=O)[C@H](C)NC(=O)[C@H](C)NC(=O)[C@H](CCC(N)=O)NC(=O)[C@H](CCCCN)NC(=O)[C@H](CC(=O)O)NC(=O)[C@H](CC(C)C)NC(=O)[C@H](Cc1ccc(O)cc1)NC(=O)[C@@H](NC(=O)[C@H](CO)NC(=O)[C@H](Cc1ccc(O)cc1)NC(=O)[C@H](CC(=O)O)NC(=O)[C@H](CO)NC(=O)[C@@H](NC(=O)[C@H](Cc1ccccc1)NC(=O)[C@@H](NC(=O)CNC(=O)[C@H](CCC(=O)O)NC(=O)CN(C)C(=O)CCN1CCCCC1=O)[C@@H](C)O)[C@@H](C)O)[C@@H](C)CC)C(C)C)C(N)=O)C(=O)O [Compound 206]	< 0.1	18	100 to 1000	> 1000	
CCCCCCCCCCCCCCCC(=O)N[C@@H](CCC(=O)NCCCC[C@H](NC(=O)[C@H](CO)NC(=O)[C@@H]1CCCN1C(=O)[C@@H]1CCCN1C(=O)[C@@H]1CCCN1C(=O)[C@H](C)NC(=O)CNC(=O)[C@H](CO)NC(=O)[C@H](CO)NC(=O)[C@@H]1CCCN1C(=O)CNC(=O)CNC(=O)[C@H](C)NC(=O)[C@H](CC(C)C)NC(=O)[C@H](CC(C)C)NC(=O)[C@H](Cc1c[nH]c2ccccc12)NC(=O)[C@H](CC(N)=O)NC(=O)[C@@H](NC(=O)[C@H](Cc1ccccc1)NC(=O)[C@H](CCC(=O)O)NC(=O)C(C)(C)NC(=O)[C@H](C)NC(=O)[C@H](C)NC(=O)[C@H](CCC(N)=O)NC(=O)[C@H](CCCCN)NC(=O)[C@H](CC(=O)O)NC(=O)[C@H](CC(C)C)NC(=O)[C@H](Cc1ccc(O)cc1)NC(=O)[C@@H](NC(=O)[C@H](CO)NC(=O)[C@H](Cc1ccc(O)cc1)NC(=O)[C@H](CC(=O)O)NC(=O)[C@H](CO)NC(=O)[C@@H](NC(=O)[C@H](Cc1ccccc1)NC(=O)[C@@H](NC(=O)CNC(=O)[C@H](CCC(=O)O)NC(=O)C(C)(C)NC(=O)CN1CCCCC1=O)[C@@H](C)O)[C@@H](C)O)[C@@H](C)CC)C(C)C)C(N)=O)C(=O)O [Compound 209]	< 0.1	27	10 to 100	10 to 1000	94
CCCCCCCCCCCCCCCC(=O)N[C@@H](CCC(=O)NCCCC[C@H](NC(=O)[C@H](CO)NC(=O)[C@@H]1CCCN1C(=O)[C@@H]1CCCN1C(=O)[C@@H]1CCCN1C(=O)[C@H](C)NC(=O)CNC(=O)[C@H](CO)NC(=O)[C@H](CO)NC(=O)[C@@H]1CCCN1C(=O)CNC(=O)CNC(=O)[C@H](C)NC(=O)[C@H](CC(C)C)NC(=O)[C@H](CC(C)C)NC(=O)[C@H](Cc1c[nH]c2ccccc12)NC(=O)[C@H](CC(N)=O)NC(=O)[C@@H](NC(=O)[C@H](Cc1ccccc1)NC(=O)[C@H](CCC(=O)O)NC(=O)C(C)(C)NC(=O)[C@H](C)NC(=O)[C@H](C)NC(=O)[C@H](CCC(N)=O)NC(=O)[C@H](CCCCN)NC(=O)[C@H](CC(=O)O)NC(=O)[C@H](CC(C)C)NC(=O)[C@H](Cc1ccc(O)cc1)NC(=O)[C@@H](NC(=O)[C@H](CO)NC(=O)[C@H](Cc1ccc(O)cc1)NC(=O)[C@H](CC(=O)O)NC(=O)[C@H](CO)NC(=O)[C@@H](NC(=O)[C@H](Cc1ccccc1)NC(=O)[C@@H](NC(=O)CNC(=O)[C@H](CCC(=O)O)NC(=O)C(C)(C)NC(=O)CCN1CCCCC1=O)[C@@H](C)O)[C@@H](C)O)[C@@H](C)CC)C(C)C)C(N)=O)C(=O)O [Compound 210]	< 0.1	40	10 to 100	10 to 1000	90
